Data set [1] relates to TNFα production in human monocytes stimulated with LPS. Nature of the data set: Inhibition of TNFα production in human monocytes stimulated with LPS (in vitro). Conditions: Monocyte; human mononuclear peripheral blood cells, LPS 10 ng/ml, 24 hours, ELISA; average of at least two determinations. The format is cell-based. Here is the method:
The compounds were dissolved in DMSO to a final concentration of 120 mM and were stored at −80° C. The solutions for the test were prepared by diluting the mother solutions in RPMI 1640 with the addition of 1% FCS and 0.01% DMSO and were filtered with 0.2 μm filters.
Mononuclear peripheral blood cells were obtained from “buffy coats” of healthy donors by separation in a Ficoll-Hypaque gradient. The cells were spread in plates with 96 wells at a concentration of about 500,000 cells per well, suspended in RPMI 1640 containing 1% FCS and were incubated at 37° C. in the presence of various concentrations (from 10^−6 to 10^−11 M) of the compounds to be tested.
After 1 hour, LPS was added (to a final concentration of 10 ng/ml; obtained from E. coli 055:B5) and the plates were incubated at 37° C. for a further 24 hours. Upon completion, the supernatant fluids were collected and used for the determination of the TNFα content by ELISA (ELISA Duoset Kit; R&D systems, Minneapolis, Minn., USA).
The concentration of TNFα was calculated with the use of a calibration curve and the IC50 values (concentration which inhibits the production of the cytokine by 50%) were calculated from the curve obtained, giving the percentage inhibition values for each individual concentration of the compound under test.
The values obtained for the compounds described in the preceding examples are given in the following table (the values are the average of the results obtained in at least two determinations, performed with cells of different donors).
(In general: ELISA stands for enzyme-linked immunosorbent assay.)

A further data set deals with TNFα production. Nature of the data set: Inhibition of TNFα production in mice induced by LPS (in vivo). Conditions: CD1 female mice, 1 mg/kg orally 60 min. prior to LPS 2 mg/kg i.p., blood TNFα 90 min. after LPS. The method, then: For the compounds of the present invention, the capacity to inhibit TNFα production induced by the administration of LPS was evaluated in mice.
A lethal quantity of LPS (E. coli 055:B5; 2 mg/kg) was administered to the animals (CD1 female mice) by an intraperitoneal route; 90 min. after administration, the animals were killed and the TNFα content present in the blood was determined by ELISA assay.
The compounds under test, suspended in Methyl Cellosolve (0.5% in water), were administered orally, 60 min. prior to the administration of LPS, at a dose of 1 mg/kg.
The results are given in the following table; the values are expressed as percentage inhibition of TNFα production in comparison with the control group.

Data set [2] in a line: Metabolic resistance in vitro, S9 liver fraction. The format is in vitro ADME. The following applies: 6 μg/ml, 37° C., phosphate buffer pH 7.4, S9 fraction protein content 2 mg/ml. The method, then:
The metabolic resistance of some compounds described in the preceding examples was evaluated by incubating the substances with the S9 fraction of a microsomal preparation of liver cells. Each compound (6 μg/ml) was incubated at 37° C. for 30 min. in phosphate buffer (pH 7.4) containing the S9 fraction (protein content 2 mg/ml). The reaction was stopped by cooling in an ice bath and adding an equal volume of water/acetonitrile (50:50) containing 0.2% of trifluoroacetic acid. After centrifuging, an aliquot of the supernatant fluid was analyzed by HPLC to evaluate the percentage of product that had remained intact.

The test system of data set [3] is human HEP-G2 hepatoma cell line. Briefly: Cytotoxicity in vitro on HEP-G2 cells (formazane colorimetric assay). The format is cell-based. The following applies: 48 h. Here is the method: The cytotoxicity of some compounds described in the preceding examples was evaluated in vitro on the human HEP-G2 hepatoma cell line by a commercial colorimetric method (Cell Titer 96® Aqueous One Solution Cell Proliferation Assay—Promega); the method determines the number of living cells on the basis of their ability to metabolize a tetrazolium salt producing formazane. The quantity of formazane produced is proportional to the number of living cells.
The HPE-G2 cells were distributed in micro-plates with 96 wells at a density of 4×10^4 cells/well (100 μl) in M199 medium containing 10% of bovine foetal serum and supplements (complete medium).
After incubation for 24 h (37° C., 5% CO2, 90% humidity) the cells were washed once and the medium was replaced with 200 μl of complete medium containing the substances to be tested at final concentrations of 10^−5, 10^−6 and 10^−7 M. The test was performed in triplicate.
The plates were incubated for a further 48 h, after which 100 μl of medium was removed and 20 μl per well of dye solution was added in accordance with the supplier's instructions. The optical density (λ=490 nm) was read after incubation for 1 h at 37° C. with the use of a plate reader (Victor 2—Wallace Perkin Elmer).
The results are expressed as the percentage inhibition of the formation of formazane in comparison with the control.

A further data set deals with mouse HDAC-1 enzyme (Mus musculus, UniProt O09106). Briefly: Inhibition of the enzymatic activity of histone deacetylase. The format is biochemical. The method, then:
The capacity of the compounds of the invention to inhibit the activity of the histone deacetylase enzyme was evaluated with the use of the mouse HADC-1 enzyme. The assay was performed by the method already described in the literature [Biochem. Biophys. Acta, 1996, vol. 1296, p. 181]. The IC50 values (concentration which inhibits the activity of the enzyme by 50%) were derived from the percentages of inhibition obtained with various concentrations of the compound under test; these values are given in the following table.

mouse HDAC-1 enzyme, sequence (O09106 whole entry): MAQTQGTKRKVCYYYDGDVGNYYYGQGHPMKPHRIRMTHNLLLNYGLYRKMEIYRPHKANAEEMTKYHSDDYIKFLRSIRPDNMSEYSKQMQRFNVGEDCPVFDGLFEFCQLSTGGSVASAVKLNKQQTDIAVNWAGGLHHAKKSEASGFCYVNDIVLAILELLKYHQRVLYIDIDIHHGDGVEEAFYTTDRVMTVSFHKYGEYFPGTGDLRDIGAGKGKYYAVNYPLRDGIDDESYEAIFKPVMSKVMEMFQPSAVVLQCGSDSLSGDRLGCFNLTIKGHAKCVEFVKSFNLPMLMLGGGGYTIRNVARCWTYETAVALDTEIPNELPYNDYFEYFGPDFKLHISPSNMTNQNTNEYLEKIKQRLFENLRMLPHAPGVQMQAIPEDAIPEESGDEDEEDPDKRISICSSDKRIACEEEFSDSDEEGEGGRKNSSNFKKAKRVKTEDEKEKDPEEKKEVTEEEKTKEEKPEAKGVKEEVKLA

With `O=C(Cc1ccc(C(F)(F)F)cc1)Nc1ccc(C(=O)NO)cc1` [Ex. 01, N-hydroxy-4-[2-(4-trifluoromethyl-phenyl)-acetylamino]-benzamide], the half-maximal inhibitory concentration (IC50) – broadly, the concentration at which inhibition is half-maximal – in data set [1] is 14.5 nM; at mouse HDAC-1 enzyme, 142 nM. In the data set on TNFα production, the “Inhibition of TNFα production in comparison with the control group” value (“Inhibition of TNFα production” below) came to 67%. For the same molecule, in data set [2], the “Residual product after 30 min.” value is 78.9%. Further, the “Cytotoxicity at 10^−6 M (percentage inhibition of the formation of formazane)” value in data set [3] was 3.8%.

With `COc1cc(CC(=O)Nc2ccc(C(=O)NO)cc2)c([N+](=O)[O-])cc1OC` [Ex. 17, N-hydroxy-4-[2-(4,5-dimethoxy-2-nitro-phenyl)-acetylamino]-benzamide], the IC50 in data set [1] stood at 280 nM; against mouse HDAC-1 enzyme it was 255 nM.

`O=C(Cc1ccc(-c2ccccc2)cc1)Nc1ccc(C(=O)NO)cc1` [Ex. 12, N-hydroxy-4-[2-(diphenyl-4-yl)-acteylamino]-benzamide]: the IC50 was found to be 227 nM in data set [1] and 7 nM against mouse HDAC-1 enzyme.

As for `O=C(Cc1cccc(C(F)(F)F)c1)Nc1ccc(C(=O)NO)cc1` [Ex. 09, N-hydroxy-4-[2-(3-trifluoromethyl-phenyl)-acetylamino]-benzamide], the IC50 was 70 nM in data set [1] and 67 nM against mouse HDAC-1 enzyme.

Consider `O=C(Cc1ccccc1OCc1ccccc1)Nc1ccc(C(=O)NO)cc1` [Ex. 18, N-hydroxy-4-[2-(2-benzyloxy-phenyl)-acetylamino]-benzamide], for which the half-inhibitory concentration (IC50) in data set [1] turned out to be 391 nM; on mouse HDAC-1 enzyme, 112 nM.

`O=C(Cc1ccccc1[N+](=O)[O-])Nc1ccc(C(=O)NO)cc1` [Ex. 19, N-hydroxy-4-[2-(2-nitro-phenyl)-acetylamino]-benzamide]: the IC50 was 1000 nM in data set [1] and 214 nM against mouse HDAC-1 enzyme.

Consider `CSc1ccc(CC(=O)Nc2ccc(C(=O)NO)cc2)cc1` [Ex. 08, N-hydroxy-4-[2-(4-methylsulphanil-phenyl)-acetylamino]-benzamide], for which the figures for the IC50 (in data set [1]; on mouse HDAC-1 enzyme) were 320 nM and 58 nM, respectively.

On to `O=C(CCc1ccccc1OC(=O)c1ccccc1)Nc1ccc(C(=O)NO)cc1` [Ex. 14, 2-[2-(4-hydroxycarbamoyl-phenylcarbamoyl)-ethyl]-phenyl ester of benzoic acid], for which the IC50 amounted to 157 nM in data set [1] and 106 nM against mouse HDAC-1 enzyme.

Turning to `CCOc1ccc(CC(=O)Nc2ccc(C(=O)NO)cc2)cc1` [Ex. 05, N-hydroxy-4-[2-(4-ethoxy-phenyl)-acetylamino]-benzamide], the IC50 in data set [1] was found to be 32 nM; against mouse HDAC-1 enzyme it was 90 nM. In addition, in data set [2], the “Residual product after 30 min.” value turned out to be 89.0%. Besides, in data set [3], the “Cytotoxicity at 10^−6 M (percentage inhibition of the formation of formazane)” value is listed as 0%.

Regarding `O=C(Cc1cccc([N+](=O)[O-])c1)Nc1ccc(C(=O)NO)cc1` [Ex. 10, N-hydroxy-4-[2-(3-nitro-phenyl)-acetylamino]-benzamide], the half-inhibitory concentration (IC50) in data set [1] was determined as 134 nM; against mouse HDAC-1 enzyme it was 130 nM.

As to `COc1cc(CC(=O)Nc2ccc(C(=O)NO)cc2)cc(OC)c1OC` [Ex. 07, N-hydroxy-4-[2-(3,4,5-trimethoxy-phenyl)-acetylamino]-benzamide], the values for the half-inhibitory concentration (IC50) (in data set [1]; against mouse HDAC-1 enzyme) were 45 nM and 14 nM, respectively.

Turning to `O=C(Cc1ccc([N+](=O)[O-])cc1)Nc1ccc(C(=O)NO)cc1` [Ex. 15, N-hydroxy-4-[2-(4-nitro-phenyl)-acteylamino]-benzamide], the IC50 turned out to be 27 nM in data set [1] and 146 nM on mouse HDAC-1 enzyme. Besides, the “Cytotoxicity at 10^−6 M (percentage inhibition of the formation of formazane)” value in data set [3] is 0%.

Consider `O=C(CCc1cc(C(F)(F)F)cc(C(F)(F)F)c1)Nc1ccc(C(=O)NO)cc1` [Ex. 06, N-hydroxy-4-[3-(3,5-bis-trifluoromethyl-phenyl)-propionyl-amino]-benzamide], for which the IC50 in data set [1] was determined as 17 nM; against mouse HDAC-1 enzyme it was 19 nM. In addition, in data set [2], the “Residual product after 30 min.” value worked out at 68.4%. Besides, the “Cytotoxicity at 10^−6 M (percentage inhibition of the formation of formazane)” value in data set [3] is given as 13%.

With `COc1cccc(CC(=O)Nc2ccc(C(=O)NO)cc2)c1OC` [Ex. 13, N-hydroxy-4-[2-(2,3-dimethoxy-phenyl)-acetylamino]-benzamide], the IC50 in data set [1] stood at 187 nM; against mouse HDAC-1 enzyme it was 202 nM.

Consider `O=C(Cc1cccc(Oc2ccccc2)c1)Nc1ccc(C(=O)NO)cc1` [Ex. 11, N-hydroxy-4-[2-(3-phenoxy-phenyl)-acetylamino]-benzamide], for which the IC50 in data set [1] stood at 108 nM; at mouse HDAC-1 enzyme it was 102 nM.

For `O=C(Cc1ccccc1Oc1ccccc1)Nc1ccc(C(=O)NO)cc1` [Ex. 16, N-hydroxy-4-[2-(2-phenoxy-phenyl)-acetylamino]-benzamide], the results for the IC50 (in data set [1]; against mouse HDAC-1 enzyme) were 259 nM and 118 nM, respectively.

Turning to `COc1ccc(CC(=O)Nc2ccc(C(=O)NO)cc2)cc1` [Ex. 04, N-hydroxy-4-[2-(4-methoxy-phenyl)-acetylamino]-benzamide], the concentration for half-maximal inhibition (IC50) came out at 51.5 nM in data set [1] and 113 nM at mouse HDAC-1 enzyme. Besides, the “Inhibition of TNFα production” value in the data set with TNFα production was determined as 42%. In data set [2], the “Residual product after 30 min.” value is 90.2%. The “Cytotoxicity at 10^−6 M (percentage inhibition of the formation of formazane)” value in data set [3] is given as 0%.

As for `COc1cccc(CCC(=O)Nc2ccc(C(=O)NO)cc2)c1` [Ex. 03, N-hydroxy-4-[3-(3-methoxy-phenyl)-propionylamino]-benzamide], the IC50 is 26 nM in data set [1] and 219 nM at mouse HDAC-1 enzyme. Also, the “Inhibition of TNFα production” value in the data set with TNFα production worked out at 56%. In addition, the “Residual product after 30 min.” value in data set [2] came out at 60.7%. For the same molecule, the “Cytotoxicity at 10^−6 M (percentage inhibition of the formation of formazane)” value in data set [3] is recorded as 7.3%.

In data set [1], `CC(CC(=O)Nc1ccc(C(=O)NO)cc1)c1ccccc1` (stereo not drawn) [Ex. 02, N-hydroxy-4-(3-phenyl-butyrylamino)-benzamide] returned a concentration for half-maximal inhibition (IC50) of 76 nM.
